For 4 compounds, MIC results are on record in US4698352A, “4-oxo-1,4-dihydronicotinic acid derivatives, salts thereof, and antibacterial agents containing the same” (Toyama Chemical Co., Ltd., priority 1982, dated 1987).

Common to all, as to test: Antibacterial activity (MIC), agar dilution
Holding throughout (assay type): cell-based

One experiment relates to E. coli TK-3*. The note with it: Escherichia coli, 20 h, E. coli TK-3, penicillinase-producing; 10^6 cells per ml; read-out: MIC. An excerpt:
(§1) The amount of bacteria inoculated was 10^4 cells per plate (10^6 cells per ml).
(§2) * Penicillinase-producing bacteria

Another experiment relates to Kl. pneumoniae Y-4*. To be noted: Klebsiella pneumoniae, 20 h, Kl. pneumoniae Y-4, penicillinase-producing, 10^6 cells per ml.
Excerpt: as §1, §2

The subject of the next experiment is Ps. aeruginosa GN3379*. To be noted: Pseudomonas aeruginosa, 20 h; Ps. aeruginosa GN3379, penicillinase-producing; 10^6 cells per ml; read-out: MIC.
Excerpt: as §1, §2

The subject of a further experiment is St. aureus F-137*. The note with it: Staphylococcus aureus, 20 h, St. aureus F-137, penicillinase-producing; 10^6 cells per ml; read-out: MIC.
Excerpt: as §1, §2

In another experiment the test system is Aci. antitratus A-6. The note with it: 20 h, Aci. antitratus A-6; 10^6 cells per ml; 37° C., 20 hours; read-out: MIC.
Excerpt: as §1

In a further experiment the test system is E. coli NIHJ JC-2. To be noted: Escherichia coli, NIHJJC2, 20 h, E. coli NIHJ JC-2; 10^6 cells per ml; 37° C., 20 hours; read-out: MIC.
Excerpt: as §1

The test system of a further experiment is St. aureus FDA209P. The note with it: Staphylococcus aureus, FDA209P, 20 h, St. aureus FDA209P; 10^6 cells per ml; 37° C., 20 hours; read-out: MIC.
Excerpt: as §1

A further experiment relates to Pro. mirabilis T-111. To be noted: Proteus mirabilis, 37° C.
Excerpt: as §1

The test system of a further experiment is Kl. pneumoniae Y-41. To be noted: Klebsiella pneumoniae, Y41, 10^6 cells per ml, 37° C., 20 hours, read-out: MIC.
Excerpt: as §1

Another experiment concerns Ent. cloacae IID977. To be noted: Enterobacter cloacae, IID977, 20 h, Ent. cloacae IID977; 10^6 cells per ml; 37° C., 20 hours; read-out: MIC.
Excerpt: as §1

The next experiment deals with Pro. vulgaris GN3027. To be noted: Proteus vulgaris, GN3027, 20 h, Pro. vulgaris GN3027; 10^6 cells per ml; 37° C., 20 hours; read-out: MIC.
Excerpt: as §1

The test system of a further experiment is Ps. aeruginosa S-68. To be noted: Pseudomonas aeruginosa.
Excerpt: as §1

For the next experiment, the system named is Ps. aeruginosa IFO3445. To be noted: Pseudomonas aeruginosa.
Excerpt: as §1

For another experiment, the system named is Pro. morganii T-216. The note with it: Morganella morganii, 37° C.
Excerpt: as §1

In the next experiment the test system is E. coli TK-111. The note with it: Escherichia coli, TK111, 20 h, E. coli TK-111; 10^6 cells per ml; 37° C., 20 hours; read-out: MIC.
Excerpt: as §1

The test system of the next experiment is Kl. pneumoniae Y-50. To be noted: Klebsiella pneumoniae, Y50, 20 h, 10^6 cells per ml, 37° C., read-out: MIC.
Excerpt: as §1

Another experiment concerns E. coli GN5482**. The note with it: Escherichia coli, 20 h; E. coli GN5482, cephalospolinase-producing; 10^6 cells per ml; read-out: MIC.
Excerpt: as §1
(§3) ** Cephalospolinase-producing bacteria

The subject of another experiment is Ps. aeruginosa GN918**. To be noted: Pseudomonas aeruginosa, Ps. aeruginosa GN918, cephalospolinase-producing, 10^6 cells per ml.
Excerpt: as §1, §3

The test system of another experiment is Pro. vulgaris GN76**. The note with it: Proteus vulgaris, 20 h; Pro. vulgaris GN76, cephalospolinase-producing; 10^6 cells per ml; read-out: MIC.
Excerpt: as §1, §3

[1] abbreviates: T111, 10^6 cells per ml, 20 hours, read-out: MIC.
Where [2] appears, read: S68, Ps. aeruginosa S-68, 10^6 cells per ml, 37° C., 20 hours, read-out: MIC.
The mark [3] stands for this setting: Ps. aeruginosa IFO3445, 10^6 cells per ml, 37° C., 20 hours, read-out: MIC.
Where [4] appears, read: T216, 10^6 cells per ml, 20 hours, read-out: MIC.

Values after ≈ are worked out from the molar mass of the structure shown. Read-outs that look alike come from different tables or passages of the source. A value given as a limit tells only on which side of the number the result lay.

For the compound `Cc1cc(O)ccc1-n1cc(C(=O)O)c(=O)cc1-c1ccc(N(C)C)cc1`, the MIC with E. coli TK-3* was 0.2 mg/L (≈ 0.549 µM); against Kl. pneumoniae Y-4*, 0.78 mg/L (≈ 2.14 µM); with Ps. aeruginosa GN3379* it was 3.13 mg/L (≈ 8.59 µM); in the experiment with St. aureus F-137* it was no more than 0.05 mg/L; in the experiment on Aci. antitratus A-6, 0.1 mg/L (≈ 0.274 µM); in the experiment on E. coli NIHJ JC-2 it was 0.1 mg/L (≈ 0.274 µM). Further, the MIC was no more than 0.05 mg/L with St. aureus FDA209P; 0.78 mg/L (≈ 2.14 µM) with Pro. mirabilis T-111 (setting [1]); 0.78 mg/L (≈ 2.14 µM) with Kl. pneumoniae Y-41; 0.39 mg/L (≈ 1.07 µM) in the experiment with Ent. cloacae IID977; 0.1 mg/L (≈ 0.274 µM) in the experiment with Pro. vulgaris GN3027; 3.13 mg/L (≈ 8.59 µM) in the experiment with Ps. aeruginosa S-68 (setting [2]). Further, the MIC was 3.13 mg/L (≈ 8.59 µM) in the experiment on Ps. aeruginosa IFO3445 (setting [3]); 0.78 mg/L (≈ 2.14 µM) in the experiment with Pro. morganii T-216 (setting [4]); no more than 0.05 mg/L with E. coli TK-111; 0.2 mg/L (≈ 0.549 µM) with Kl. pneumoniae Y-50; no more than 0.05 mg/L in the experiment on E. coli GN5482**; 1.56 mg/L (≈ 4.28 µM) in the experiment on Ps. aeruginosa GN918** (20 h, read-out: MIC). Also, in the experiment on Pro. vulgaris GN76**, the MIC was determined as 0.39 mg/L (≈ 1.07 µM).
As for `CC(=O)Oc1ccc(-n2cc(C(=O)O)c(=O)cc2-c2ccc(-c3cccs3)cc2)cc1`, the minimum inhibitory concentration (MIC) was 0.39 mg/L (≈ 0.904 µM) in the experiment with E. coli TK-3*; 1.56 mg/L (≈ 3.62 µM) in the experiment on Kl. pneumoniae Y-4* (read-out: MIC); 3.13 mg/L (≈ 7.25 µM) in the experiment with Ps. aeruginosa GN3379*; no more than 0.05 mg/L in the experiment on St. aureus F-137*; no more than 0.05 mg/L in the experiment on Aci. antitratus A-6; 0.2 mg/L (≈ 0.464 µM) in the experiment on E. coli NIHJ JC-2. The minimal inhibitory concentration (MIC) in the experiment on St. aureus FDA209P is no more than 0.05 mg/L; in the experiment on Pro. mirabilis T-111 (setting [1]), 0.39 mg/L (≈ 0.904 µM); in the experiment on Kl. pneumoniae Y-41 it was 0.78 mg/L (≈ 1.81 µM); with Ent. cloacae IID977, 0.39 mg/L (≈ 0.904 µM); in the experiment with Pro. vulgaris GN3027, no more than 0.05 mg/L; in the experiment on Ps. aeruginosa S-68 (S68, 20 h), 1.56 mg/L (≈ 3.62 µM). In addition, the minimum inhibitory concentration (MIC) was 1.56 mg/L (≈ 3.62 µM) with Ps. aeruginosa IFO3445 (IFO3445, 20 h); 0.39 mg/L (≈ 0.904 µM) in the experiment on Pro. morganii T-216 (setting [4]); no more than 0.05 mg/L in the experiment with E. coli TK-111; 0.39 mg/L (≈ 0.904 µM) in the experiment with Kl. pneumoniae Y-50; no more than 0.05 mg/L with E. coli GN5482**; 1.56 mg/L (≈ 3.62 µM) against Ps. aeruginosa GN918** (GN918, 20 h). In addition, the minimal inhibitory concentration (MIC) in the experiment on Pro. vulgaris GN76** amounted to 0.39 mg/L (≈ 0.904 µM).
In the case of `CC(=O)Oc1ccc(-n2cc(C(=O)O)c(=O)cc2-c2ccc(N(C)C)cc2)c(C)c1`, the MIC in the experiment on E. coli TK-3* was 0.39 mg/L (≈ 0.96 µM); in the experiment with Kl. pneumoniae Y-4* (read-out: MIC) it was 1.56 mg/L (≈ 3.84 µM); with Ps. aeruginosa GN3379*, 6.25 mg/L (≈ 15.4 µM); in the experiment on St. aureus F-137*, no more than 0.05 mg/L; in the experiment with Aci. antitratus A-6, no more than 0.05 mg/L; in the experiment on E. coli NIHJ JC-2 it was 0.2 mg/L (≈ 0.492 µM). Further, the MIC is no more than 0.05 mg/L with St. aureus FDA209P; 0.78 mg/L (≈ 1.92 µM) in the experiment with Pro. mirabilis T-111 (setting [1]); 1.56 mg/L (≈ 3.84 µM) in the experiment on Kl. pneumoniae Y-41; 0.78 mg/L (≈ 1.92 µM) in the experiment on Ent. cloacae IID977; 0.39 mg/L (≈ 0.96 µM) in the experiment on Pro. vulgaris GN3027; 3.13 mg/L (≈ 7.7 µM) in the experiment on Ps. aeruginosa S-68 (setting [2]). Further, the MIC is 6.25 mg/L (≈ 15.4 µM) in the experiment on Ps. aeruginosa IFO3445 (setting [3]); 1.56 mg/L (≈ 3.84 µM) against Pro. morganii T-216 (T216, 20 h, 10^6 cells per ml); no more than 0.05 mg/L in the experiment on E. coli TK-111; 0.39 mg/L (≈ 0.96 µM) in the experiment with Kl. pneumoniae Y-50; no more than 0.05 mg/L in the experiment with E. coli GN5482**; 1.56 mg/L (≈ 3.84 µM) in the experiment with Ps. aeruginosa GN918** (GN918, 20 h). For the same compound, in the experiment on Pro. vulgaris GN76**, the MIC came to 0.39 mg/L (≈ 0.96 µM).
As to `O=C(O)c1cn(-c2ccc(O)cc2)c(-c2ccc(-c3ccc(Cl)s3)cc2)cc1=O`, the MIC was 0.78 mg/L (≈ 1.84 µM) in the experiment with E. coli TK-3*; 1.56 mg/L (≈ 3.68 µM) in the experiment with Kl. pneumoniae Y-4* (read-out: MIC); 3.13 mg/L (≈ 7.38 µM) in the experiment on Ps. aeruginosa GN3379*; no more than 0.05 mg/L in the experiment on St. aureus F-137*; 0.1 mg/L (≈ 0.236 µM) in the experiment on Aci. antitratus A-6; 0.2 mg/L (≈ 0.472 µM) in the experiment on E. coli NIHJ JC-2. Also, the MIC was no more than 0.05 mg/L with St. aureus FDA209P; 1.56 mg/L (≈ 3.68 µM) against Pro. mirabilis T-111 (T111, 20 h, 10^6 cells per ml); 1.56 mg/L (≈ 3.68 µM) with Kl. pneumoniae Y-41; 0.78 mg/L (≈ 1.84 µM) in the experiment with Ent. cloacae IID977; no more than 0.1 mg/L in the experiment on Pro. vulgaris GN3027; 3.13 mg/L (≈ 7.38 µM) with Ps. aeruginosa S-68 (setting [2]). Moreover, the MIC with Ps. aeruginosa IFO3445 (setting [3]) is 3.13 mg/L (≈ 7.38 µM); with Pro. morganii T-216 (setting [4]) it was 0.78 mg/L (≈ 1.84 µM); in the experiment with E. coli TK-111 it was 0.1 mg/L (≈ 0.236 µM); with Kl. pneumoniae Y-50 it was 0.39 mg/L (≈ 0.92 µM); with E. coli GN5482**, no more than 0.05 mg/L; with Ps. aeruginosa GN918** (20 h, read-out: MIC), 0.78 mg/L (≈ 1.84 µM). In addition, the MIC in the experiment on Pro. vulgaris GN76** came out at 0.39 mg/L (≈ 0.92 µM).

Usually MIC stands for the lowest concentration found to suppress growth.
